Source: ChEMBL document CHEMBL5113400, “Design, synthesis, and biological evaluation of trizole-based heteroaromatic derivatives as Bcr-Abl kinase inhibitors” (Eur J Med Chem, 2022)
Each block holds one molecule with its values, some of them ahead of it. Active and inactive are the calls of the source. The calls are words filed in the database; no cut-off is given here.

Key:
K562 [1] = experiment: Induction of apoptosis in human K562 cells assessed as viable cells at 1 uM incubated for 48 hrs by Annexin V-FITC/PI staining based flow cytometry analysis (Rvb= 80.56%); type: functional; settings: read-out: Activity
BaF3 [2] = experiment: Antiproliferative activity against mouse BaF3 cells expressing Bcr-Abl T315I mutant assessed as inhibition of cell growth at 30 uM incubated for 72 hrs by CellTiter-Glo luminescent assay; type: functional
K562 [3] = experiment: Induction of apoptosis in human K562 cells assessed as viable cells at 10 uM incubated for 48 hrs by Annexin V-FITC/PI staining based flow cytometry analysis (Rvb= 80.56%); type: functional; settings: read-out: Activity
K562 [4] = experiment: Induction of apoptosis in human K562 cells assessed as early apoptotic cells at 1 uM incubated for 48 hrs by Annexin V-FITC/PI staining based flow cytometry analysis (Rvb= […]); type: functional
K562 [5] = experiment: Induction of cell cycle arrest in human K562 cells assessed as reduction in G0/G1 phase at 1 to 10 uM incubated for 48 hrs by PI staining based flow cytometry; type: functional; settings: dose 1-10 µM
K562 [6] = experiment: Induction of apoptosis in human K562 cells assessed as late apoptotic cells at 5 uM incubated for 48 hrs by Annexin V-FITC/PI staining based flow cytometry analysis (Rvb= 2.89%); type: functional
K562 [7] = experiment: Antiproliferative activity against human K562 cells assessed as inhibition of cell growth incubated for 48 hrs by MTT assay; type: functional, cell-based; settings: K562, 48 h
Bcr/Abl fusion protein [8] = biological target: Bcr/Abl fusion protein (Homo sapiens, UniProt P00519, T315I); experiment: Inhibition of Bcr-Abl T315I mutant (unknown origin) incubated for 1 hr in presence of ATP by ADP-Glo kinase assay; type: protein assay
Bcr/Abl fusion protein [9] = biological target: Bcr/Abl fusion protein (Homo sapiens, UniProt P00519); experiment: Inhibition of wild type Bcr-Abl (unknown origin) incubated for 1 hr in presence of ATP by ADP-Glo kinase assay; type: protein assay
K562 [10] = experiment: Induction of apoptosis in human K562 cells assessed as viable cells at 5 uM incubated for 48 hrs by Annexin V-FITC/PI staining based flow cytometry analysis (Rvb= 80.56%); type: functional; settings: read-out: Activity
BaF3 [11] = experiment: Antiproliferative activity against mouse BaF3 cells expressing Bcr-Abl T315I mutant assessed as inhibition of cell growth incubated for 72 hrs by CellTiter-Glo luminescent assay; type: functional, cell-based; settings: BaF3, 72 h
[12] = biological target: T1, Signal transducer and activator of transcription 5A (Homo sapiens) (UniProt P42229); experiment: Inhibition of STAT5 phosphorylation at Tyr694 residue in human K562 cells expressing wild type Bcr-Abl at 0.1 to 15 uM measured after 48 hrs by Western blot analysis; type: cell-based; settings: dose 0.1-15 µM, DDE = dose-dependent effect
T1 sequence (whole entry): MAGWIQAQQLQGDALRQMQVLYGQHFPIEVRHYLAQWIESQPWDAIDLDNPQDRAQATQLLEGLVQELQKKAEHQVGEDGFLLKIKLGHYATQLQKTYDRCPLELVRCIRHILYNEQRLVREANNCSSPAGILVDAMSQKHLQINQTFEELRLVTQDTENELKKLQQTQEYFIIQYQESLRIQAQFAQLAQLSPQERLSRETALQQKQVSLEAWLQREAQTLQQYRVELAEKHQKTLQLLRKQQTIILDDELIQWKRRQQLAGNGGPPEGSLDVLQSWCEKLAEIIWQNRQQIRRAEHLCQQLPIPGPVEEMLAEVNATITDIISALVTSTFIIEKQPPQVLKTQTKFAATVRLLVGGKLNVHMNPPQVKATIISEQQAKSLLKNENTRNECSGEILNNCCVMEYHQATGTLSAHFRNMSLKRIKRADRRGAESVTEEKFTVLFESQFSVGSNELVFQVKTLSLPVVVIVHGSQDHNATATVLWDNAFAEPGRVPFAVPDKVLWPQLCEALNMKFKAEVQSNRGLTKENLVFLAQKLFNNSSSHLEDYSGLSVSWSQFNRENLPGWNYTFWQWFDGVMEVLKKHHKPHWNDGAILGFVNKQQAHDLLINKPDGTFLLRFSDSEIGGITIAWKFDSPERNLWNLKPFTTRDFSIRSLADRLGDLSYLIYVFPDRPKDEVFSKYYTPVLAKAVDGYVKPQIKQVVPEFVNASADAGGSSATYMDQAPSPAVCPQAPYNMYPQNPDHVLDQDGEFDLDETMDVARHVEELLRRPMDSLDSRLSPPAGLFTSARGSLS

K562 [13] = experiment: Induction of apoptosis in human K562 cells assessed as late apoptotic cells at 10 uM incubated for 48 hrs by Annexin V-FITC/PI staining based flow cytometry analysis (Rvb= 2.89%); type: functional
K562 [14] = experiment: Induction of apoptosis in human K562 cells assessed as late apoptotic cells at 1 uM incubated for 48 hrs by Annexin V-FITC/PI staining based flow cytometry analysis (Rvb= 2.89%); type: functional
K562 [15] = experiment: Induction of apoptosis in human K562 cells assessed as early apoptotic cells at 5 uM incubated for 48 hrs by Annexin V-FITC/PI staining based flow cytometry analysis (Rvb= […]); type: functional
BaF3 [16] = experiment: Antiproliferative activity against mouse BaF3 cells expressing wild type Bcr-Abl assessed as inhibition of cell growth incubated for 72 hrs by CellTiter-Glo luminescent assay; type: functional, cell-based; settings: BaF3, 72 h
K562/Adr = experiment: Antiproliferative activity against human Adriamycin-resistant K562/Adr cells assessed as inhibition of cell growth incubated for 48 hrs by MTT assay; type: functional, cell-based
K562 [17] = experiment: Induction of apoptosis in human K562 cells assessed as necrotic cells at 10 uM incubated for 48 hrs by Annexin V-FITC/PI staining based flow cytometry analysis (Rvb= 0.29%); type: functional
K562 [18] = experiment: Induction of cell cycle arrest in human K562 cells assessed as accumulation at S phase at 1 to 10 uM incubated for 48 hrs by PI staining based flow cytometry; type: functional; settings: dose 1-10 µM
[19] = biological target: T2, Bcr/Abl fusion protein (Homo sapiens) (UniProt P00519+P11274); experiment: Inhibition of Bcr-Abl phosphorylation at Tyr245 residue in human K562 cells expressing wild type Bcr-Abl at 5 to 15 uM measured after 48 hrs by Western blot analysis; type: cell-based; settings: dose 5-15 µM
K562 [20] = experiment: Induction of apoptosis in human K562 cells assessed as necrotic cells at 1 uM incubated for 48 hrs by Annexin V-FITC/PI staining based flow cytometry analysis (Rvb= 0.29%); type: functional
HEK293 = experiment: Cytotoxicity against human HEK293 cells assessed as inhibition of cell growth upto 100 uM incubated for 48 hrs by MTT assay; type: toxicity, cell-based; settings: hek293, 48 h
BaF3 [21] = experiment: Antiproliferative activity against mouse BaF3 cells assessed as inhibition of cell growth incubated for 72 hrs by CellTiter-Glo luminescent assay; type: functional, cell-based; settings: BaF3, 72 h
K562 [22] = experiment: Induction of apoptosis in human K562 cells assessed as early apoptotic cells at 10 uM incubated for 48 hrs by Annexin V-FITC/PI staining based flow cytometry analysis (Rvb= […]); type: functional
K-562R = experiment: Antiproliferative activity against human K-562R cells expressing Bcr-Abl T315I mutant assessed as inhibition of cell growth incubated for 48 hrs by MTT assay; type: functional, cell-based
EA.hy 926 = experiment: Cytotoxicity against human EA.hy 926 cells assessed as inhibition of cell growth upto 100 uM incubated for 48 hrs by MTT assay; type: toxicity, cell-based; settings: ea.hy 926, 48 h
K562 [23] = experiment: Induction of apoptosis in human K562 cells assessed as necrotic cells at 5 uM incubated for 48 hrs by Annexin V-FITC/PI staining based flow cytometry analysis (Rvb= 0.29%); type: functional
K562 [24] = experiment: Induction of apoptosis in human K562 cells assessed as late apoptotic cells at 20 uM incubated for 48 hrs by Annexin V-FITC/PI staining based flow cytometry analysis (Rvb= 5.35%); type: functional
K562 [25] = experiment: Induction of apoptosis in human K562 cells assessed as early apoptotic cells at 20 uM incubated for 48 hrs by Annexin V-FITC/PI staining based flow cytometry analysis (Rvb= 11.35%); type: functional
[26] = biological target: T2, Bcr/Abl fusion protein (Homo sapiens); experiment: Inhibition of Bcr-Abl phosphorylation at Tyr245 residue in human K562 cells expressing wild type Bcr-Abl at 0.1 to 15 uM measured after 48 hrs by Western blot analysis; type: cell-based; settings: dose 0.1-15 µM, DDE = dose-dependent effect
K562 [27] = experiment: Induction of apoptosis in human K562 cells assessed as necrotic cells at 5 uM incubated for 48 hrs by Annexin V-FITC/PI staining based flow cytometry analysis (Rvb= 0.25%); type: functional
K562 [28] = experiment: Induction of apoptosis in human K562 cells assessed as late apoptotic cells at 10 uM incubated for 48 hrs by Annexin V-FITC/PI staining based flow cytometry analysis (Rvb= 5.35%); type: functional
K562 [29] = experiment: Induction of apoptosis in human K562 cells assessed as viable cells at 20 uM incubated for 48 hrs by Annexin V-FITC/PI staining based flow cytometry analysis (Rvb= 83.0.5%); type: functional; settings: read-out: Activity
K562 [30] = experiment: Induction of apoptosis in human K562 cells assessed as necrotic cells at 10 uM incubated for 48 hrs by Annexin V-FITC/PI staining based flow cytometry analysis (Rvb= 0.25%); type: functional
K562 [31] = experiment: Induction of apoptosis in human K562 cells assessed as necrotic cells at 20 uM incubated for 48 hrs by Annexin V-FITC/PI staining based flow cytometry analysis (Rvb= 0.25%); type: functional
K562 [32] = experiment: Induction of apoptosis in human K562 cells assessed as viable cells at 10 uM incubated for 48 hrs by Annexin V-FITC/PI staining based flow cytometry analysis (Rvb= 83.0.5%); type: functional; settings: read-out: Activity
K562 [33] = experiment: Induction of apoptosis in human K562 cells assessed as viable cells at 5 uM incubated for 48 hrs by Annexin V-FITC/PI staining based flow cytometry analysis (Rvb= 83.0.5%); type: functional; settings: read-out: Activity
K562 [34] = experiment: Induction of apoptosis in human K562 cells assessed as early apoptotic cells at 10 uM incubated for 48 hrs by Annexin V-FITC/PI staining based flow cytometry analysis (Rvb= 11.35%); type: functional
K562 [35] = experiment: Induction of apoptosis in human K562 cells assessed as early apoptotic cells at 5 uM incubated for 48 hrs by Annexin V-FITC/PI staining based flow cytometry analysis (Rvb= 11.35%); type: functional
K562 [36] = experiment: Induction of apoptosis in human K562 cells assessed as late apoptotic cells at 5 uM incubated for 48 hrs by Annexin V-FITC/PI staining based flow cytometry analysis (Rvb= 5.35%); type: functional
K562 [37] = experiment: Induction of cell cycle arrest in human K562 cells assessed as accumulation at S phase at 5 to 20 uM incubated for 48 hrs by PI staining based flow cytometry (Rvb=49%); type: functional; settings: dose 5-20 µM

IC50 (K562 [7]): 5.06 µM
IC50 (Bcr/Abl fusion protein [8]): 111 nM
IC50 (Bcr/Abl fusion protein [9]): 0.49 nM
IC50 (BaF3 [11]): 4.13 µM
inhibition [12]: Dde
IC50 (BaF3 [16]): 6.96 µM
IC50 (K562/Adr): 4.72 µM
inhibition [19]: Active
IC50 (BaF3 [21]): > 20 µM
IC50 (K-562R): 13.3 µM
SMILES: CS(=O)(=O)Nc1ccc(-c2cn([C@@H]3CN[C@H](C(=O)Nc4ccc(Cl)c(C(F)(F)F)c4)C3)nn2)cn1
viability at 1 µM (K562 [1]): 79.3%
inhibition at 30 µM (BaF3 [2]): 99.7%
viability at 10 µM (K562 [3]): 71.8%
Activity (K562 [4]): 18.03%
Activity (K562 [5]): Active
Activity (K562 [6]): 3.19%
viability at 5 µM (K562 [10]): 79.3%
Activity (K562 [13]): 4.11%
Activity (K562 [14]): 2.43%
Activity (K562 [15]): 17.14%
Activity (K562 [17]): 0.28%
Activity (K562 [18]): Active
Activity (K562 [20]): 0.19%
Activity (HEK293): Non-Toxic
Activity (K562 [22]): 23.79%
Activity (EA.hy 926): Non-Toxic
Activity (K562 [23]): 0.4%

IC50 (K562 [7]): 5.2 µM
inhibition [26]: Dde
IC50 (Bcr/Abl fusion protein [8]): 188 nM
IC50 (Bcr/Abl fusion protein [9]): 1.5 nM
IC50 (BaF3 [11]): 9.47 µM
inhibition [12]: Dde
IC50 (BaF3 [16]): 1.42 µM
IC50 (K562/Adr): 9.57 µM
IC50 (BaF3 [21]): > 20 µM
IC50 (K-562R): 40.1 µM
SMILES: O=C(Nc1n[nH]c2cc(-c3cn([C@@H]4CN[C@H](C(=O)Nc5ccc(Cl)c(C(F)(F)F)c5)C4)nn3)ccc12)C1CC1
inhibition at 30 µM (BaF3 [2]): 85.4%
Activity (K562 [24]): 12.2%
Activity (K562 [25]): 33.16%
Activity (K562 [27]): 0.22%
Activity (K562 [28]): 12.74%
viability at 20 µM (K562 [29]): 54.4%
Activity (K562 [30]): 0.19%
Activity (HEK293): Non-Toxic
Activity (K562 [31]): 0.23%
viability at 10 µM (K562 [32]): 68.6%
viability at 5 µM (K562 [33]): 76.7%
Activity (K562 [34]): 18.48%
Activity (K562 [35]): 14.34%
Activity (K562 [36]): 8.75%
Activity (K562 [37]): 54.15%
Activity (EA.hy 926): Non-Toxic
